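Five concentrations, 48 hours, 96-well plates. GI50: concentration for 50% inhibition of growth. At the TGI there is no net growth.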
Legend:
Test in all cases: growth of human tumour cells (NCI), 48 h
OVCAR-8 ovarian = tested on: OVCAR-8 ovarian
MOLT-4 leukemia = tested on: MOLT-4 leukemia
CCRF-CEM leukemia = tested on: CCRF-CEM leukemia
OVCAR-4 ovarian = tested on: OVCAR-4 ovarian
RXF 393 renal = tested on: RXF 393 renal
DMS 114 small cell lung = tested on: DMS 114 small cell lung
NCI-H522 lung = tested on: NCI-H522 lung
OVCAR-3 ovarian = tested on: OVCAR-3 ovarian
U251 CNS = tested on: U251 CNS
DMS 273 small cell lung = tested on: DMS 273 small cell lung
NCI-H460 lung = tested on: NCI-H460 lung
HOP-92 NSCLC = tested on: HOP-92 NSCLC
HT29 colon = tested on: HT29 colon
SR leukemia = tested on: SR leukemia
TK-10 renal = tested on: TK-10 renal
HCC-2998 colon = tested on: HCC-2998 colon
SK-MEL-28 melanoma = tested on: SK-MEL-28 melanoma
ACHN renal = tested on: ACHN renal
SNB-19 CNS = tested on: SNB-19 CNS
OVCAR-5 ovarian = tested on: OVCAR-5 ovarian
UACC-62 melanoma = tested on: UACC-62 melanoma
NCI-H226 lung = tested on: NCI-H226 lung
DLD-1 colon = tested on: DLD-1 colon
IGROV1 ovarian = tested on: IGROV1 ovarian
M19-MEL melanoma = tested on: M19-MEL melanoma
NCI-H23 lung = tested on: NCI-H23 lung
SNB-78 CNS = tested on: SNB-78 CNS
CAKI-1 renal = tested on: CAKI-1 renal
HL-60(TB) leukemia = tested on: HL-60(TB) leukemia
SN12C renal = tested on: SN12C renal
KM20L2 colon = tested on: KM20L2 colon
A549 NSCLC = tested on: A549 NSCLC
SF-268 CNS = tested on: SF-268 CNS
MALME-3M melanoma = tested on: MALME-3M melanoma
SW-620 colon = tested on: SW-620 colon
SK-OV-3 ovarian = tested on: SK-OV-3 ovarian
UO-31 renal = tested on: UO-31 renal
HCT-116 colon = tested on: HCT-116 colon
EKVX NSCLC = tested on: EKVX NSCLC
UACC-257 melanoma = tested on: UACC-257 melanoma
SNB-75 CNS = tested on: SNB-75 CNS
K-562 leukemia = tested on: K-562 leukemia
HOP-62 NSCLC = tested on: HOP-62 NSCLC
KM12 colon = tested on: KM12 colon
M14 melanoma = tested on: M14 melanoma
SF-539 CNS = tested on: SF-539 CNS
786-0 renal = tested on: 786-0 renal
SK-MEL-5 melanoma = tested on: SK-MEL-5 melanoma
SK-MEL-2 melanoma = tested on: SK-MEL-2 melanoma
PC-3 prostate = tested on: PC-3 prostate
DU-145 prostate = tested on: DU-145 prostate
MCF7 breast = tested on: MCF7 breast
T-47D breast = tested on: T-47D breast
RPMI-8226 leukemia = tested on: RPMI-8226 leukemia
MDA-N = tested on: MDA-N
SF-295 CNS = tested on: SF-295 CNS
HCT-15 colon = tested on: HCT-15 colon
BT-549 breast = tested on: BT-549 breast
LOX IMVI melanoma = tested on: LOX IMVI melanoma
HS 578T breast = tested on: HS 578T breast
MDA-MB-435 = tested on: MDA-MB-435
A498 renal = tested on: A498 renal
COLO 205 colon = tested on: COLO 205 colon
NCI/ADR-RES ovarian = tested on: NCI/ADR-RES ovarian
MDA-MB-231 breast = tested on: MDA-MB-231 breast

Work on `COC(OC)c1cc2c(cc1C=O)OCO2` yielded a TGI (OVCAR-8 ovarian) of over 100 µM, a TGI (MOLT-4 leukemia) of over 100 µM and a TGI (CCRF-CEM leukemia) of over 100 µM. The TGI (OVCAR-4 ovarian) was over 100 µM, the TGI (RXF 393 renal) was over 100 µM and the TGI (DMS 114 small cell lung) was over 100 µM. The TGI (NCI-H522 lung) was over 100 µM, the TGI (OVCAR-3 ovarian) was over 100 µM and the TGI (U251 CNS) was over 100 µM. The TGI (DMS 273 small cell lung) was over 100 µM, the TGI (NCI-H460 lung) was over 100 µM and the TGI (HOP-92 NSCLC) was over 100 µM. For the same compound, the TGI (HT29 colon) was over 100 µM, the TGI (SR leukemia) was over 100 µM and the TGI (TK-10 renal) was over 100 µM. For the same compound, the TGI (HCC-2998 colon) was over 100 µM, the TGI (SK-MEL-28 melanoma) was over 100 µM and the TGI (ACHN renal) was over 100 µM. It also gave a TGI (SNB-19 CNS) of over 100 µM, a TGI (OVCAR-5 ovarian) of over 100 µM and a TGI (UACC-62 melanoma) of over 100 µM. It also gave a TGI (NCI-H226 lung) of over 100 µM, a TGI (DLD-1 colon) of over 100 µM and a TGI (IGROV1 ovarian) of over 100 µM. For the same compound, the TGI (M19-MEL melanoma) was over 100 µM, the TGI (NCI-H23 lung) was over 100 µM and the TGI (SNB-78 CNS) was over 100 µM. It also gave a TGI (CAKI-1 renal) of over 100 µM, a TGI (HL-60(TB) leukemia) of over 100 µM and a TGI (SN12C renal) of over 100 µM. It also gave a TGI (KM20L2 colon) of over 100 µM, a TGI (A549 NSCLC) of over 100 µM and a TGI (SF-268 CNS) of over 100 µM. The TGI (MALME-3M melanoma) was 96.5 µM, the TGI (SW-620 colon) was over 100 µM and the TGI (SK-OV-3 ovarian) was over 100 µM. For the same compound, the TGI (UO-31 renal) was over 100 µM, the TGI (HCT-116 colon) was over 100 µM and the TGI (EKVX NSCLC) was over 100 µM. The TGI (UACC-257 melanoma) was over 100 µM, the TGI (SNB-75 CNS) was 54.7 µM and the TGI (K-562 leukemia) was over 100 µM. For the same compound, the TGI (HOP-62 NSCLC) was over 100 µM, the TGI (KM12 colon) was over 100 µM and the TGI (M14 melanoma) was over 100 µM. The TGI (SF-539 CNS) was over 100 µM, the TGI (786-0 renal) was over 100 µM and the TGI (SK-MEL-5 melanoma) was over 100 µM. The TGI (SK-MEL-2 melanoma) was over 100 µM.

`C[C@H]1/C(=C/C(=O)OCCN(C)C)CC[C@H]2[C@H]1C(=O)C[C@H]1C(C)(C)[C@@H](O)CC[C@]21C` was tested, and the TGI (OVCAR-8 ovarian) was over 100 µM, the TGI (PC-3 prostate) was over 100 µM and the TGI (MOLT-4 leukemia) was over 100 µM. It also gave a TGI (CCRF-CEM leukemia) of over 100 µM, a TGI (OVCAR-4 ovarian) of over 100 µM and a TGI (RXF 393 renal) of over 100 µM. The TGI (DU-145 prostate) was over 100 µM, the TGI (NCI-H522 lung) was over 100 µM and the TGI (OVCAR-3 ovarian) was over 100 µM. For the same compound, the TGI (MCF7 breast) was over 100 µM, the TGI (U251 CNS) was over 100 µM and the TGI (NCI-H460 lung) was over 100 µM. The TGI (HOP-92 NSCLC) was over 100 µM, the TGI (HT29 colon) was over 100 µM and the TGI (SR leukemia) was over 100 µM. The TGI (T-47D breast) was over 100 µM, the TGI (TK-10 renal) was over 100 µM and the TGI (RPMI-8226 leukemia) was over 100 µM. For the same compound, the TGI (HCC-2998 colon) was over 100 µM, the TGI (SK-MEL-28 melanoma) was over 100 µM and the TGI (ACHN renal) was over 100 µM. For the same compound, the TGI (MDA-N) was over 100 µM, the TGI (SNB-19 CNS) was over 100 µM and the TGI (OVCAR-5 ovarian) was over 100 µM. For the same compound, the TGI (UACC-62 melanoma) was over 100 µM, the TGI (NCI-H226 lung) was over 100 µM and the TGI (IGROV1 ovarian) was over 100 µM. For the same compound, the TGI (SF-295 CNS) was over 100 µM, the TGI (HCT-15 colon) was over 100 µM and the TGI (BT-549 breast) was over 100 µM. The TGI (NCI-H23 lung) was over 100 µM, the TGI (LOX IMVI melanoma) was over 100 µM and the TGI (CAKI-1 renal) was over 100 µM. It also gave a TGI (HL-60(TB) leukemia) of over 100 µM, a TGI (SN12C renal) of over 100 µM and a TGI (HS 578T breast) of over 100 µM. For the same compound, the TGI (A549 NSCLC) was over 100 µM, the TGI (SF-268 CNS) was over 100 µM and the TGI (MALME-3M melanoma) was over 100 µM. The TGI (SW-620 colon) was over 100 µM, the TGI (SK-OV-3 ovarian) was over 100 µM and the TGI (MDA-MB-435) was over 100 µM. It also gave a TGI (A498 renal) of over 100 µM, a TGI (UO-31 renal) of over 100 µM and a TGI (HCT-116 colon) of over 100 µM. The TGI (EKVX NSCLC) was over 100 µM, the TGI (UACC-257 melanoma) was over 100 µM and the GI50 (SNB-75 CNS) was over 100 µM. For the same compound, the TGI (SNB-75 CNS) was over 100 µM, the GI50 (K-562 leukemia) was over 100 µM and the TGI (K-562 leukemia) was over 100 µM. The TGI (COLO 205 colon) was over 100 µM, the TGI (HOP-62 NSCLC) was over 100 µM and the TGI (KM12 colon) was over 100 µM. For the same compound, the TGI (M14 melanoma) was over 100 µM, the TGI (SF-539 CNS) was over 100 µM and the TGI (NCI/ADR-RES ovarian) was over 100 µM. It also gave a TGI (786-0 renal) of over 100 µM, a TGI (MDA-MB-231 breast) of over 100 µM and a TGI (SK-MEL-5 melanoma) of over 100 µM. For the same compound, the TGI (SK-MEL-2 melanoma) was over 100 µM.
